Here are results for 2 compounds from patent US8158587B2, “Compound having histone deacetylase-inhibiting activity, and pharmaceutical composition comprising the compound as an active ingredient” (Kyushu Institute of Technology, priority 2006, dated 2012).

Bounds are passed on as bounds.

Common to all, as to format: cell-based
In experiment [1] the test system is lung cancer cell line NCI-H23. Description: Human cancer cell line panel, proliferation (sulforhodamine B). To be noted: NCI-H23, 2 days of cultivation; read-out: 50% inhibitory concentration, proliferation. The source says: (§1) The characteristics of the human cancer cell proliferation-inhibiting activity of the compounds of the present invention were examined by the “method of evaluating the mechanisms of action of compounds using a panel of human cancer cell lines” as proposed by Yamori et al. (cf. Gan to Kagaku Ryoho (Cancer and Chemotherapy) 29 Suppl. II (2002) and Cancer Chemother. Pharmacol. 52 Suppl. I, S74-79 (2003)).
(§2) This system includes […] (7 lung cancer, 6 stomach cancer, 5 colon cancer, 5 ovarian cancer, 6 brain tumor, […], 2 kidney cancer and 2 prostate cancer cell lines as well as one melanoma line) and the method comprises measuring the in vitro drug susceptibilities of those cancer cell lines and expressing the differences in drug susceptibility among the respective cancer cell lines as a fingerprint. […] By utilizing this property, it is possible to estimate the mechanisms of action of a compound. The above method is also characterized in that an anticancer substance showing new and unique mechanisms of action different from those of the existing anticancer agents can be selected.
(§3) Cancer cells of each cell line are sowed onto a 96-well plate, a sample solution is added on the next day and, after 2 days of cultivation, the cell proliferation is measured by colorimetry using sulforhodamine B. The deviations in effective concentration for the respective cancer cell lines from the mean effective drug concentration for the 39 cancer cell lines subjected to measurement are calculated and shown in the form a fingerprint.

Experiment [2] relates to breast cancer cell line BSY-1. The description is as above. To be noted: BSY-1, 2 days of cultivation; read-out: 50% inhibitory concentration, proliferation.
Excerpt: as §1, §2, §3

Experiment [3] deals with lung cancer cell line NCI-H522. Described as above. Conditions: NCI-H522, 2 days of cultivation; read-out: 50% inhibitory concentration, proliferation.
Excerpt: as §1, §2, §3

Experiment [4] concerns melanoma cell line LOX-IMVI. The experiment is described as above. Conditions: 2 days of cultivation, read-out: 50% inhibitory concentration, proliferation.
Excerpt: as §1, §2, §3

The test system of experiment [5] is ovarian cancer cell line OVCAR-5. Described as above. To be noted: OVCAR-5, 2 days of cultivation; read-out: 50% inhibitory concentration, proliferation.
Excerpt: as §1, §2, §3

Experiment [6] deals with brain tumor cell line SF-539. The experiment is described as above. Conditions: SF-539, 2 days of cultivation; read-out: 50% inhibitory concentration, proliferation.
Excerpt: as §1, §2, §3

Experiment [7] concerns lung cancer cell line NCI-H226. The experiment is described as above. Conditions: NCI-H226, 2 days of cultivation; read-out: 50% inhibitory concentration, proliferation.
Excerpt: as §1, §2, §3

The test system of experiment [8] is colon cancer cell line HCC2998. Described as above. To be noted: HCC2998, 2 days of cultivation; read-out: 50% inhibitory concentration, proliferation.
Excerpt: as §1, §2, §3

Experiment [9] concerns lung cancer cell line A549. The experiment is described as above. Conditions: A549, 2 days of cultivation; read-out: 50% inhibitory concentration, proliferation.
Excerpt: as §1, §2, §3

Experiment [10] relates to lung cancer cell line NCI-H460. The description is as above. Conditions: NCI-H460, 2 days of cultivation; read-out: 50% inhibitory concentration, proliferation.
Excerpt: as §1, §2, §3

The test system of experiment [11] is kidney cancer cell line RXF-631L. The experiment is described as above. To be noted: 2 days of cultivation, read-out: 50% inhibitory concentration, proliferation.
Excerpt: as §1, §2, §3

The test system of experiment [12] is brain tumor cell line SNB-75. The description is as above. To be noted: SNB-75, 2 days of cultivation; read-out: 50% inhibitory concentration, proliferation.
Excerpt: as §1, §2, §3

Experiment [13] concerns lung cancer cell line DMS114. The description is as above. Conditions: DMS114, 2 days of cultivation; read-out: 50% inhibitory concentration, proliferation.
Excerpt: as §1, §2, §3

Experiment [14] has as its system prostate cancer cell line DU-145. The experiment is described as above. Conditions: DU-145, 2 days of cultivation; read-out: 50% inhibitory concentration, proliferation.
Excerpt: as §1, §2, §3

Experiment [15] concerns ovarian cancer cell line OVCAR-8. The description is as above. To be noted: OVCAR-8, 2 days of cultivation; read-out: 50% inhibitory concentration, proliferation.
Excerpt: as §1, §2, §3

Experiment [16] has as its system colon cancer cell line HCT-116. Described as above. Conditions: HCT-116, 2 days of cultivation; read-out: 50% inhibitory concentration, proliferation.
Excerpt: as §1, §2, §3

In experiment [17] the test system is stomach cancer cell line MKN1. The experiment is described as above. To be noted: MKN1, 2 days of cultivation; read-out: 50% inhibitory concentration, proliferation.
Excerpt: as §1, §2, §3

The test system of experiment [18] is colon cancer cell line HT-29. The experiment is described as above. To be noted: HT-29, 2 days of cultivation; read-out: 50% inhibitory concentration, proliferation.
Excerpt: as §1, §2, §3

Experiment [19] has as its system human wild type p21 promoter. Description: p21 promoter assay (luciferase) in MFLL-9 cells. Conditions: 20 hours, concentration giving 1000% luminescence relative to negative control (100%).

`CC1(C)NC(=O)[C@H](CCCCCSCc2ccncc2)NC(=O)[C@H]2CCCN2C(=O)[C@H](Cc2ccccc2)NC1=O` [Ky-26, cyclo(-L-Am7(4-pyridylmethyl)-Aib-L-Phe-D-Pro-)]: the IC50 is at most 100 nM in experiment [1]; at most 100 nM in [2]; at most 10 nM in experiment [3]; at most 100 nM in experiment [4]; at most 100 nM in [5]; at most 100 nM in experiment [6]. In addition, the IC50 in experiment [7], in [8], in [9], in experiment [10], in experiment [11] and in experiment [12] was at most 100 nM in each case. The IC50 in experiment [13], in experiment [14], in [15], in experiment [16], in experiment [17] and in experiment [18] was at most 100 nM throughout. In [19], the “p21 promoter activity EC1000” value is 0.010 µM.

Turning to `CC(=O)CSCCCCC[C@@H]1NC(=O)[C@H]2CCCN2C(=O)[C@H](Cc2ccccc2)NC(=O)C(C)(C)NC1=O` [Ky-72, cyclo(-L-Am7(acetonyl)-Aib-L-Phe-D-Pro-)], the IC50 in experiment [1] was at most 100 nM; in [2], at most 100 nM; in experiment [3], at most 10 nM; in experiment [4] it was at most 100 nM; in experiment [5] it was at most 100 nM; in [6], at most 100 nM. In addition, the IC50 in experiment [7], in experiment [8], in experiment [9], in [10], in experiment [11] and in experiment [12] was at most 100 nM throughout. Further, the IC50 is at most 100 nM in experiment [13]; at most 100 nM in experiment [14]; at most 100 nM in [15]; at most 10 nM in [16]; at most 100 nM in experiment [17]; at most 100 nM in experiment [18]. Moreover, in experiment [19], the “p21 promoter activity EC1000” value was determined as 0.031 µM.
